This is an account of results in publication PMC10691883, “Efficient One-Pot Synthesis of Novel Caffeic Acid Derivatives as Potential Antimalarials” (Journal of Parasitology Research, 2023).

Data set [1] can be described thus: MTT cytotoxicity assay on NHDF cells. It is filed as cell-based. As to conditions: human, NHDF cells (normal human dermal fibroblasts). On the procedure:
NHDF cells were grown in alpha-MEM medium supplemented likewise with 10% FBS, L-glutamine, and antibiotic-antimycotic. Cultures were maintained at 37°C, in a humidified Innova CO-180 incubator (New Brunswick Scientific, Edison, NJ, USA) in an atmosphere containing 5% CO2. The cytotoxic effects of CA derivatives were evaluated as described in literature using the standard MTT assay. Briefly, NHDF cells were seeded in a 96-well plate at a density of 5 × 10^3 cells per well in an alpha-MEM medium. Cells were grown overnight and subsequently exposed to the different concentrations of tested compounds dissolved in DMSO. An equivalent volume of DMSO was used as a negative control. After 72 h of incubation, media containing the test compounds were removed, the cells were washed with sterile PBS, and 50 μL of MTT solution (0.5 mg/mL stock solution was 10 times diluted in the appropriate culture medium) was added to each well for 3 h at 37°C. Subsequently, the MTT solution was removed, the formazan crystals were solubilized in DMSO, and absorbance was recorded using an Asys UVM 340 multiwell plate reader (Cambridge, UK) at 560 nm with a reference wavelength of 670 nm. The % of cell viability was calculated using the following formula: Cell viability (%) = (AT/AC) × 100, where AT is the absorbance of the treatment well (treated cells) and AC is the absorbance of the control well (not treated cells). GraphPad Prism software for Windows (GraphPad Software, La Jolla, CA, USA) was used to calculate IC50 values.
On the technique in general: Formazan colour is commonly taken as a measure of viable cells.

For data set [2], the system named is P. falciparum D10 (CQ-sensitive) strain. The data set is described as follows: P. falciparum drug susceptibility assay (pLDH), CQ-sensitive strain D10. It is filed as cell-based. As to conditions: for SID10: IC50(NHDF)/IC50(D10); for IC50: Plasmodium falciparum. Here is the method:
(§1) P. falciparum cultures were prepared and maintained according to the method of Trager and Jensen, with slight modifications. […] Serial dilutions of the compounds were prepared in 96-well flat-bottomed microplates. […] Parasite growth was determined spectrophotometrically (OD650) by measuring the activity of parasite lactate dehydrogenase (pLDH), according to a modified version of the method of Makler and Hinrichs, in control and compound-treated cultures.

In data set [3] the test system is P. falciparum W2 (CQ-resistant) strain. The data set is described as follows: P. falciparum drug susceptibility assay (pLDH), CQ-resistant strain W2. It counts as cell-based. As to conditions: for SIW2: IC50(NHDF)/IC50(W2); for IC50: Plasmodium falciparum, read-out: P. falciparum IC50 W2. Here is the method:
as §1

Data set [4] relates to P. berghei. More on the design: method as in PMID 30033538. To be noted: 100 mg/kg, in vivo; cited from earlier work.
Data set [5] can be described thus: Hemolytic activity against human erythrocytes. It counts as cell-based. To be noted: freshly isolated human red blood cells (erythrocytes), PBS, 37°C. On the procedure:
Hemolytic activity was measured as described by Jaromin et al. Compounds 3 and 4, dissolved in DMSO, were added in a volume corresponding to a final concentration of 12.5 μM and then incubated with freshly isolated human red blood cells in PBS buffer at 37°C for 30 min. After centrifugation, the absorbance was determined at 540 nm, to assess the released hemoglobin. In addition, negative (erythrocytes in PBS buffer), positive (erythrocytes in distilled water), and DMSO controls were also performed. The study protocol was approved by the Bioethics Commission at the Lower Silesian Medical Chamber (1/PNHAB/2018).

Data set [6] concerns NHDF cells (normal human dermal fibroblasts). As to conditions: read-out: Cytotoxicity IC50, MTT; cited from earlier work.
Where [7] appears, read: D10 CQ-sensitive strain, 72 h, pLDH, mean ± SD, read-out: P. falciparum IC50 D10.
Setting [8] is: W2 CQ-resistant strain, 72 h, pLDH, mean ± SD.
The mark [9] stands for this setting: strain not given (D10 and/or W2), read-out: P. falciparum IC50.

Each structure is given as a SMILES string. Where two headings read alike, the source gives them in different places. A value given as a limit tells only on which side of the number the result lay.

Take `CCOC(=O)/C=C/c1ccc(O)c(O)c1O` [Compound 2, Ethyl (2E)-3-(2,3,4-Trihydroxyphenyl)-propenoate]: the melting point was 172 to 173 °C. The IC50 at 72 h in data set [1] was found to be 115 ± 1.76 µM. The compound further returned an SID10 in data set [2] of 2.74. The IC50 in data set [2] (setting [7]) is 42.1 ± 9.12 µM. In data set [3], this compound registered an SIW2 of 2.98. For the same compound, the IC50 in data set [3] (setting [8]) amounted to 38.8 ± 17.8 µM.
Turning to `CCOC(=O)/C=C/c1ccc(O)c(O)c1` [Ethyl caffeate], the “P. berghei inhibition growth” value in data set [4] is on record as 55%.
With `CC(C)(C)OC(=O)/C=C/c1ccc(O)c(O)c1O` [Compound 4, tert-Butyl (2E)-3-(2,3,4-Trihydroxyphenyl)-propenoate], the melting point came out at 175 °C. Besides, the hemolysis at 30 min, 12.5 µM in data set [5] is 52.9 ± 2.93%. Moreover, the IC50 at 72 h in data set [1] turned out to be 90.3 ± 10.3 µM. Besides, the SID10 in data set [2] turned out to be 7.42. Further, the IC50 in data set [2] (setting [7]) was 12.2 ± 4.9 µM. The IC50 in data set [2] (setting [9]) lay within 11 to 12.7 µM. Besides, in data set [3] (CQ-resistant strain, 4 compared with 1), the “fold decrease of IC50 versus compound 1” value turned out to be 7.9 times. The compound further registered an SIW2 in data set [3] of 8.24. For the same compound, in data set [3] (setting [8]), the IC50 came out at 11 ± 4.88 µM.
`CCN(CC)CCCC(C)Nc1ccnc2cc(Cl)ccc12` (centres unmarked) [CQ, chloroquine, reference compound] came in with an SID10 in data set [2] of 2047.5. Besides, the IC50 in data set [2] (D10, 72 h, read-out: P. falciparum IC50 D10) was 0.02 ± 0.01 µM; in data set [6], 41 ± 2.29 µM; in data set [3] (W2, 72 h) it was 0.23 ± 0.08 µM. In data set [3], this compound displayed an SIW2 of 178.04.
With `O=C(O)/C=C/c1ccc(O)c(O)c1` [CA, (E)-3-(3,4-dihydroxyphenyl)prop-2-enoic acid, reference compound], the IC50 in data set [2] (setting [7]) and in data set [3] (setting [8]) was > 278 µM each time.
In data set [1], `CC(C)(C)OC(=O)/C=C/c1ccc(O)cc1O` [Compound 1, tert-Butyl (2E)-3-(2,4-Dihydroxyphenyl)-propenoate] came in with an IC50 at 72 h of 249.8 ± 0.51 µM. This compound registered an SID10 in data set [2] of 8.73. The IC50 in data set [2] (setting [7]) is 28.6 ± 1.94 µM; in data set [3] (setting [8]) it was 86.4 ± 27.4 µM. The compound also had an SIW2 in data set [3] of 2.89. In data set [3] (ratio IC50 W2 / IC50 D10), the “RI (resistance index)” value came out at 3.02.
As for `CC(C)(C)OC(=O)/C=C/c1ccc(O)c(F)c1` [Compound 6, tert-Butyl (2E)-3-(3-Fluoro-4-hydroxyphenyl)-propenoate], the melting point was 88.3 °C. The compound also showed an IC50 at 72 h in data set [1] of 229 ± 7.57 µM. The SID10 in data set [2] worked out at 1.77. The IC50 in data set [2] (setting [7]) was determined as 129 ± 59.6 µM. Further, the IC50 in data set [2] (setting [9]) was found to be 145 µM. In data set [3], the SIW2 came out at 1.95. Besides, the IC50 in data set [3] (setting [8]) is 117 ± 35.9 µM.
On to `CCOC(=O)/C(C)=C/c1ccc(O)c(F)c1` [Compound 5, Ethyl (2E)-3-(3-Fluoro-4-hydroxyphenyl)-2-methylpropenoate], for which the values for the IC50 in data set [2] (setting [7]), in data set [2] (setting [9]) and in data set [3] (setting [8]) were 145 ± 53.6 µM, 117 µM and 131 ± 52.7 µM, respectively.
On to `CCOC(=O)/C(C)=C/c1ccc(O)c(O)c1O` [Compound 3, Ethyl (2E)-3-(2,3,4-Trihydroxyphenyl)-2-methylpropenoate], for which the melting point amounted to 140 °C. In data set [5], this compound gave a hemolysis at 30 min, 12.5 µM of 4.13 ± 0.85%. The same compound yielded an IC50 at 72 h in data set [1] of 79.2 ± 6.14 µM. The SID10 in data set [2] came to 6.23. For the same compound, in data set [2] (setting [7]), the IC50 worked out at 12.7 ± 2.33 µM. Besides, the IC50 in data set [2] (setting [9]) was in the range of 11 to 12.7 µM. Moreover, the SIW2 in data set [3] turned out to be 7.02. For the same compound, the IC50 in data set [3] (setting [8]) was found to be 11.3 ± 4.81 µM.

Usually IC50 stands for the concentration needed to halve the response being measured. One may read the melting point as the temperature of the solid-liquid transition.
